Where two headings read alike, the source gives them in different places.
Tests used:
Type in all cases: in vivo
[1] = test system: pigweed (Amaranthus retroflexus); assay: Test A pre-/postemergence: pigweed; conditions: for pest or weed control at 125 g/ha / pest or weed control at 500 g/ha: Amaranthus retroflexus, 240 h
Summary of the method: (§1)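 Whole-plant greenhouse assay in loam/sand. Preemergence directed soil spray plus simultaneous postemergence spray (one- to two-leaf stage, 2–10 cm). Rated visually ~10 days later, 0 = no effect, 100 = complete control.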

[2] = test system: wheat (Triticum aestivum); assay: Test A pre-/postemergence: wheat; conditions: for plant injury at 125 g/ha / plant injury at 500 g/ha: Triticum aestivum, 240 h
Summary of the method: as §1

[3] = test system: barnyardgrass (Echinochloa crus-galli); assay: Test B flooded paddy: barnyardgrass; conditions: Flood; 250 g ai/ha; applied to paddy water at 2-leaf stage; visually evaluated after 13 to 15 days
Summary of the method: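 Visual ratings (0 = no effect, 100 = complete control) versus untreated controls were taken 13–15 days after treatment of greenhouse plants. Treatment was added to paddy water held at 3 cm depth on 2-leaf-stage seedlings.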

[4] = test system: ryegrass, Italian (Italian ryegrass, Lolium multiflorum); assay: Test C pre-/postemergence: ryegrass, Italian
Summary of the method: (§2)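 Visual injury scored 0–100 (100 = complete control) against untreated controls after 13–15 greenhouse days. Surfactant-containing solvent formulations applied either to soil after sowing (loam/sand) or over 1- to 4-leaf plants, 2–18 cm tall.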

[5] = test system: galium (catchweed bedstraw, Galium aparine); assay: Test C pre-/postemergence: galium
Summary of the method: as §2

corn (Zea mays) = assay: Test C pre-/postemergence: corn
Summary of the method: as §2

[6] = test system: large crabgrass (Digitaria sanguinalis); assay: Test C pre-/postemergence: large crabgrass
Summary of the method: as §2

[7] = test system: foxtail, giant (giant foxtail, Setaria faberii); assay: Test C pre-/postemergence: foxtail, giant
Summary of the method: as §2

[8] = test system: lambsquarters (Chenopodium album); assay: Test C pre-/postemergence: lambsquarters
Summary of the method: as §2

[9] = test system: morningglory (Ipomoea coccinea); assay: Test C pre-/postemergence: morningglory
Summary of the method: as §2

[10] = Postemergence, 1000 g ai/ha, visual rating on 0 to 100 scale (0 no effect, 100 complete control), approximately ten days
[11] = Preemergence, 1000 g ai/ha, 0 to 100 scale, 0 is no effect, 100 is complete control
[12] = Postemergence, 31 g ai/ha, scale 0 to 100 (0 no effect, 100 complete control)
[13] = Postemergence, 62 g ai/ha, scale 0 to 100 (0 no effect, 100 complete control)
[14] = Postemergence, 125 g ai/ha, scale 0 to 100, 0 no effect, 100 complete control
[15] = Postemergence, 250 g ai/ha, scale 0 to 100
[16] = Preemergence, 31 g ai/ha, scale of 0 to 100, 0 is no effect, 100 is complete control
[17] = Preemergence, 62 g ai/ha, scale of 0 to 100, 0 is no effect, 100 is complete control
[18] = Preemergence, 125 g ai/ha, scale 0 to 100, 0 no effect, 100 complete control
[19] = Preemergence, 250 g ai/ha, scale 0 to 100, 0 no effect, 100 complete control
[20] = Preemergence, 62 g ai/ha, scale 0 to 100, 0 no effect, 100 complete control
[21] = Postemergence, 125 g ai/ha, 0 to 100 scale, 0 is no effect, 100 is complete control
[22] = Postemergence, 500 g ai/ha, visual rating on 0 to 100 scale (0 no effect, 100 complete control), approximately ten days
[23] = Preemergence, 125 g ai/ha, 0 to 100 scale where 0 is no effect and 100 is complete control
[24] = Preemergence, 500 g ai/ha, 0 to 100 scale (0 no effect, 100 complete control)

Compound: Cc1nn(-c2ccc(F)cc2F)nc1Cc1ccnc(C(F)(F)F)c1 [Compound 54, 4-[[2-(2,4-difluorophenyl)-5-methyl-2H-1,2,3-triazol-4-yl]methyl]-2-(trifluoromethyl)pyridine]
- pest or weed control at 125 g/ha ([1]; post-emergence, Postemergence, 125 g ai/ha, 0 to 100 scale, 0 is no effect, 100 is complete control, read-out: Pigweed plant response rating): 100%
- pest or weed control at 500 g/ha ([1]; post-emergence, Postemergence, 500 g ai/ha, visual rating on 0 to 100 scale (0 no effect, 100 complete control), approximately ten days, read-out: Pigweed plant response rating): 100%
- pest or weed control at 125 g/ha ([1]; pre-emergence, Preemergence, 125 g ai/ha, 0 to 100 scale (0 no effect, 100 complete control), read-out: Plant response rating, Pigweed): 100%
- pest or weed control at 500 g/ha ([1]; pre-emergence, Preemergence, 500 g ai/ha, 0 to 100 scale, 0 is no effect, 100 is complete control, read-out: Plant response rating, Pigweed): 100%
- plant injury at 125 g/ha ([2]; post-emergence, Postemergence, 125 g ai/ha, 0 to 100 scale, 0 is no effect, 100 is complete control, read-out: Wheat plant response rating): 20%
- plant injury at 500 g/ha ([2]; post-emergence, Postemergence, 500 g ai/ha, visual rating on 0 to 100 scale (0 no effect, 100 complete control), approximately ten days, read-out: Wheat plant response rating): 30%
- plant injury at 125 g/ha ([2]; pre-emergence, Preemergence, 125 g ai/ha, 0 to 100 scale (0 no effect, 100 complete control), read-out: Plant response rating, Wheat): 10%
- plant injury at 500 g/ha ([2]; pre-emergence, Preemergence, 500 g ai/ha, 0 to 100 scale, 0 is no effect, 100 is complete control, read-out: Plant response rating, Wheat): 30%
- Plant response rating, Barnyardgrass (0 to 100 scale, 0 is no effect, 100 is complete control) [3]: 30

Compound: Cc1nn(-c2ccc(C(F)(F)F)cn2)nc1Cc1cccc(C(F)(F)F)c1 [Compound 106]
- Pigweed plant response rating [1, 10]: 100
- Pigweed plant response rating [1, 11]: 90
- Wheat plant response rating [2, 10]: 10
- Wheat plant response rating [2, 11]: 0
- Plant response rating, Ryegrass, Italian [4, 12]: 5
- Plant response rating, Ryegrass, Italian [4, 13]: 5
- Plant response rating, Ryegrass, Italian [4, 14]: 20
- Plant response rating, Ryegrass, Italian [4, 15]: 30
- Plant response rating, Ryegrass, Italian [4, 16]: 5
- Plant response rating, Ryegrass, Italian [4, 17]: 20
- Plant response rating, Ryegrass, Italian [4, 18]: 45
- Plant response rating, Ryegrass, Italian [4, 19]: 50
- Plant response rating, Galium [5, 12]: 65
- Plant response rating, Galium [5, 13]: 65
- Plant response rating, Galium [5, 14]: 80
- Plant response rating, Galium [5, 15]: 80
- Plant response rating, Galium [5, 16]: 5
- Plant response rating, Galium [5, 17]: 10
- Plant response rating, Galium [5, 18]: 60
- Plant response rating, Galium [5, 19]: 90
- Plant response rating, Corn (corn (Zea mays); [12]): 10
- Plant response rating, Corn (corn (Zea mays); [13]): 15
- Plant response rating, Corn (corn (Zea mays); [14]): 15
- Plant response rating, Corn (corn (Zea mays); [15]): 55
- Plant response rating, Corn (corn (Zea mays); [16]): 0
- Plant response rating, Corn (corn (Zea mays); [20]): 0
- Plant response rating, Corn (corn (Zea mays); [18]): 0
- Plant response rating, Corn (corn (Zea mays); [19]): 10
- Plant response rating, Crabgrass, Large [6, 12]: 40
- Plant response rating, Crabgrass, Large [6, 13]: 55
- Plant response rating, Crabgrass, Large [6, 14]: 65
- Plant response rating, Crabgrass, Large [6, 15]: 65
- Plant response rating, Crabgrass, Large [6, 16]: 100
- Plant response rating, Crabgrass, Large [6, 17]: 100
- Plant response rating, Crabgrass, Large [6, 18]: 100
- Plant response rating, Crabgrass, Large [6, 19]: 100
- Plant response rating, Foxtail, Giant [7, 12]: 40
- Plant response rating, Foxtail, Giant [7, 13]: 40
- Plant response rating, Foxtail, Giant [7, 14]: 55
- Plant response rating, Foxtail, Giant [7, 15]: 55
- Plant response rating, Foxtail, Giant [7, 16]: 65
- Plant response rating, Foxtail, Giant [7, 17]: 85
- Plant response rating, Foxtail, Giant [7, 18]: 100
- Plant response rating, Foxtail, Giant [7, 19]: 100
- Plant response rating, Lambsquarters [8, 12]: 80
- Plant response rating, Lambsquarters [8, 13]: 100
- Plant response rating, Lambsquarters [8, 14]: 100
- Plant response rating, Lambsquarters [8, 15]: 100
- Plant response rating, Lambsquarters [8, 16]: 85
- Plant response rating, Lambsquarters [8, 17]: 100
- Plant response rating, Lambsquarters [8, 18]: 100
- Plant response rating, Lambsquarters [8, 19]: 100
- Plant response rating, Morningglory [9, 12]: 0
- Plant response rating, Morningglory [9, 13]: 20
- Plant response rating, Morningglory [9, 14]: 40
- Plant response rating, Morningglory [9, 15]: 40
- Plant response rating, Morningglory [9, 16]: 0
- Plant response rating, Morningglory [9, 17]: 0
- Plant response rating, Morningglory [9, 18]: 10
- Plant response rating, Morningglory [9, 19]: 60

Compound: Cc1nn(-c2ccc(C(F)(F)F)cc2)nc1Oc1ccnc(C(F)(F)F)c1 [Compound 120]
- Pigweed plant response rating [1, 21]: 90
- Pigweed plant response rating [1, 22]: 100
- Plant response rating, Pigweed [1, 23]: 100
- Plant response rating, Pigweed [1, 24]: 100
- Wheat plant response rating [2, 21]: 10
- Wheat plant response rating [2, 22]: 30
- Plant response rating, Wheat [2, 23]: 10
- Plant response rating, Wheat [2, 24]: 20
- Plant response rating, Ryegrass, Italian [4, 12]: 5
- Plant response rating, Ryegrass, Italian [4, 13]: 5
- Plant response rating, Ryegrass, Italian [4, 14]: 5
- Plant response rating, Ryegrass, Italian [4, 15]: 30
- Plant response rating, Ryegrass, Italian [4, 16]: 40
- Plant response rating, Ryegrass, Italian [4, 17]: 90
- Plant response rating, Ryegrass, Italian [4, 18]: 90
- Plant response rating, Ryegrass, Italian [4, 19]: 95
- Plant response rating, Galium [5, 12]: 80
- Plant response rating, Galium [5, 13]: 80
- Plant response rating, Galium [5, 14]: 85
- Plant response rating, Galium [5, 16]: 98
- Plant response rating, Galium [5, 17]: 100
- Plant response rating, Galium [5, 18]: 100
- Plant response rating, Galium [5, 19]: 100
- Plant response rating, Corn (corn (Zea mays); [12]): 5
- Plant response rating, Corn (corn (Zea mays); [13]): 10
- Plant response rating, Corn (corn (Zea mays); [14]): 10
- Plant response rating, Corn (corn (Zea mays); [15]): 10
- Plant response rating, Corn (corn (Zea mays); [16]): 0
- Plant response rating, Corn (corn (Zea mays); [20]): 5
- Plant response rating, Corn (corn (Zea mays); [18]): 25
- Plant response rating, Corn (corn (Zea mays); [19]): 50
- Plant response rating, Crabgrass, Large [6, 12]: 5
- Plant response rating, Crabgrass, Large [6, 13]: 25
- Plant response rating, Crabgrass, Large [6, 14]: 25
- Plant response rating, Crabgrass, Large [6, 15]: 45
- Plant response rating, Crabgrass, Large [6, 16]: 100
- Plant response rating, Crabgrass, Large [6, 17]: 100
- Plant response rating, Crabgrass, Large [6, 18]: 100
- Plant response rating, Crabgrass, Large [6, 19]: 100
- Plant response rating, Foxtail, Giant [7, 12]: 5
- Plant response rating, Foxtail, Giant [7, 13]: 45
- Plant response rating, Foxtail, Giant [7, 14]: 50
- Plant response rating, Foxtail, Giant [7, 15]: 55
- Plant response rating, Foxtail, Giant [7, 16]: 98
- Plant response rating, Foxtail, Giant [7, 17]: 98
- Plant response rating, Foxtail, Giant [7, 18]: 98
- Plant response rating, Foxtail, Giant [7, 19]: 100
- Plant response rating, Lambsquarters [8, 12]: 100
- Plant response rating, Lambsquarters [8, 13]: 100
- Plant response rating, Lambsquarters [8, 14]: 100
- Plant response rating, Lambsquarters [8, 15]: 100
- Plant response rating, Lambsquarters [8, 16]: 85
- Plant response rating, Lambsquarters [8, 17]: 100
- Plant response rating, Lambsquarters [8, 18]: 100
- Plant response rating, Lambsquarters [8, 19]: 100
- Plant response rating, Morningglory [9, 12]: 60
- Plant response rating, Morningglory [9, 13]: 60
- Plant response rating, Morningglory [9, 14]: 65
- Plant response rating, Morningglory [9, 15]: 98
- Plant response rating, Morningglory [9, 16]: 45
- Plant response rating, Morningglory [9, 17]: 45
- Plant response rating, Morningglory [9, 18]: 45
- Plant response rating, Morningglory [9, 19]: 90

Reference: patent US9302999B2, “Substituted triazoles as herbicides” (E. I. DU PONT DE NEMOURS AND COMPANY, priority 2012, dated 2016)
